The source of these data is ChEMBL document CHEMBL1146707, “Mechanism-based active site modification of the soybean sterol methyltransferase by 26,27-dehydrocycloartenol” (Bioorg Med Chem Lett, 2004).

Experiment [1] relates to Glycine max. The experiment in a line: Catalytic competence for soybean sterol methyl transferase (SMT) assay was determined.
Experiment [2] deals with Glycine max. The experiment can be described thus: Michaelis-Menten constant was evaluated for the soybean sterol methyl transferase (SMT) action.
The subject of experiment [3] is Glycine max. The experiment in a line: Catalytic rate constant was evaluated for the soybean sterol methyl transferase (SMT) action.
Experiment [4] is described as follows: Compound (100 uM) and 26,27-DHC for 45 min.
Experiment [5] is described as follows: Compound (50 uM) and 26,27-DHC for 45 min.
For experiment [6], the system named is Glycine max. The experiment in a line: Catalytic competence for sterol methyl transferase (SMT) assay was determined.
A short description of experiment [7]: Apparent Ki value was calculated. Details: species or system Glycine max.
For experiment [8], the system named is Glycine max. The experiment in a line: Maximum rate of inactivation for the soybean sterol methyl transferase (SMT) action was determined.
Experiment [9] is described as follows: Ratio of kcat to kinact for the compound was determined.

In the case of `C=C(CCC(C)C1CC[C@@]2(C)C3CCC4C(C)(C)C(O)CCC45CC35CCC12C)C(C)C` (some centres not stated), the Activity in the experiment on Glycine max [1] was determined as 3e-05.
In the case of `CC(C)=CCCC(C)C1CC[C@@]2(C)C3CCC4C(C)(C)C(O)CCC45CC35CCC12C` (some centres not stated), the Activity worked out at 3e-05 in the experiment on Glycine max [1], 33% in experiment [4] and 48% in [5]. For the same molecule, the Michaelis constant (Km) – broadly, the concentration of substrate that gives half-maximal velocity – in the experiment with Glycine max [2] turned out to be 30 µM. This molecule also registered a k cat with Glycine max [3] of 0.6 min⁻¹.
Molecule `CC(CCC=C1CC1)C1CC[C@@]2(C)C3CCC4C(C)(C)C(O)CCC45CC35CCC12C` (some centres not stated) returned an Activity in the experiment on Glycine max [6] of 3e-05. Moreover, the Ki in experiment [7] is 42 µM. For the same molecule, the Michaelis-Menten constant (Km) in the experiment with Glycine max [2] amounted to 10 µM. The molecule further displayed a k cat in the experiment on Glycine max [3] of 0.018 min⁻¹. In addition, the K inact in the experiment with Glycine max [8] turned out to be 0.29 min⁻¹. In addition, the Ratio in experiment [9] was 0.06.
